# Tests used:
# Staphylococcus aureus [1] = test: Antibacterial activity against methicillin-resistant Staphylococcus aureus ATCC 33591 after 18 hrs by CLSI broth microdilution method; type: functional; settings: ATCC 33591, 18 h
# Pseudomonas aeruginosa [2] = test: Antibacterial activity against Pseudomonas aeruginosa ATCC 27853 after 18 hrs by CLSI broth microdilution method; type: functional; settings: ATCC 27853, 18 h
# Pseudomonas aeruginosa [3] = test: Antibacterial activity against Pseudomonas aeruginosa 12-16 after 18 hrs by CLSI broth microdilution method; type: functional; settings: 12-16, 18 h
# Enterococcus faecium [4] = test: Antibacterial activity against vancomycin-resistant Enterococcus faecium ATCC 700221 after 18 hrs by CLSI broth microdilution method; type: functional; settings: ATCC 700221, 18 h
# Proteus vulgaris = test: Antibacterial activity against Proteus vulgaris ATCC 29905 after 18 hrs by CLSI broth microdilution method; type: functional; settings: ATCC 29905, 18 h
# Klebsiella pneumoniae [5] = test: Antibacterial activity against extended-spectrum beta-lactamase deficient Klebsiella pneumoniae 7 after 18 hrs by CLSI broth microdilution method; type: functional; settings: Klebsiella pneumoniae, 7, 18 h
# Staphylococcus aureus [6] = test: Antibacterial activity against methicillin-sensitive Staphylococcus aureus 15 after 18 hrs by CLSI broth microdilution method; type: functional; settings: Staphylococcus aureus, 15, 18 h
# Enterococcus faecalis [7] = test: Antibacterial activity against vancomycin-sensitive Enterococcus faecalis 12-5 after 18 hrs by CLSI broth microdilution method; type: functional; settings: 12-5, 18 h
# Proteus mirabilis = test: Antibacterial activity against Proteus mirabilis 12-6 after 18 hrs by CLSI broth microdilution method; type: functional; settings: 12-6, 18 h
# Enterococcus faecalis [8] = test: Antibacterial activity against vancomycin-sensitive Enterococcus faecalis ATCC 29212 after 18 hrs by CLSI broth microdilution method; type: functional; settings: ATCC 29212, 18 h
# [9] = system: Staphylococcus epidermidis; test: Antibacterial activity against methicillin-sensitive Staphylococcus epidermidis ATCC 12228 after 18 hrs by CLSI broth microdilution method; type: functional; settings: ATCC 12228, 18 h
# Serratia marcescens = test: Antibacterial activity against Serratia marcescens ATCC 21074 after 18 hrs by CLSI broth microdilution method; type: functional; settings: ATCC 21074, 18 h
# Providencia rettgeri = test: Antibacterial activity against Providencia rettgeri ATCC 31052 after 18 hrs by CLSI broth microdilution method; type: functional; settings: ATCC 31052, 18 h
# Staphylococcus aureus [10] = test: Antibacterial activity against methicillin-sensitive Staphylococcus aureus 12-28 after 18 hrs by CLSI broth microdilution method; type: functional; settings: 12-28, 18 h
# Klebsiella aerogenes = test: Antibacterial activity against Enterobacter aerogenes ATCC 13048 after 18 hrs by CLSI broth microdilution method; type: functional; settings: ATCC 13048, 18 h
# Klebsiella pneumoniae [11] = test: Antibacterial activity against extended-spectrum beta-lactamase harboring Klebsiella pneumoniae ATCC 700603 after 18 hrs by CLSI broth microdilution method; type: functional; settings: Klebsiella pneumoniae, 700603, 18 h
# Klebsiella pneumoniae [12] = test: Antibacterial activity against extended-spectrum beta-lactamase harboring Klebsiella pneumoniae 12-8 after 18 hrs by CLSI broth microdilution method; type: functional; settings: 12-8, 18 h
# Staphylococcus aureus [13] = test: Antibacterial activity against methicillin-resistant Staphylococcus aureus 12-33 after 18 hrs by CLSI broth microdilution method; type: functional; settings: 12-33, 18 h
# Enterococcus faecalis [14] = test: Antibacterial activity against vancomycin-resistant Enterococcus faecalis ATCC 51299 after 18 hrs by CLSI broth microdilution method; type: functional; settings: ATCC 51299, 18 h
# Escherichia coli [15] = test: Antibacterial activity against extended-spectrum beta-lactamase deficient Escherichia coli 12-14 after 18 hrs by CLSI broth microdilution method; type: functional; settings: 12-14, 18 h
# [16] = system: Staphylococcus epidermidis; test: Antibacterial activity against methicillin-sensitive Staphylococcus epidermidis 12-6 after 18 hrs by CLSI broth microdilution method; type: functional; settings: 12-6, 18 h
# Pseudomonas aeruginosa [17] = test: Antibacterial activity against Pseudomonas aeruginosa PAO1 after 18 hrs by CLSI broth microdilution method; type: functional; settings: PAO1, 18 h
# [18] = system: Acinetobacter calcoaceticus; test: Antibacterial activity against Acinetobacter calcoaceticus ATCC 19606 after 18 hrs by CLSI broth microdilution method; type: functional; settings: ATCC 19606, 18 h
# Escherichia coli [19] = test: Antibacterial activity against extended-spectrum beta-lactamase harboring Escherichia coli 12-15 after 18 hrs by CLSI broth microdilution method; type: functional; settings: 12-15, 18 h
# Enterobacter cloacae = test: Antibacterial activity against Enterobacter cloacae ATCC 43560 after 18 hrs by CLSI broth microdilution method; type: functional; settings: ATCC 43560, 18 h
# Klebsiella pneumoniae [20] = test: Antibacterial activity against extended-spectrum beta-lactamase deficient Klebsiella pneumoniae 12-4 after 18 hrs by CLSI broth microdilution method; type: functional; settings: 12-4, 18 h
# Escherichia coli [21] = test: Antibacterial activity against extended-spectrum beta-lactamase deficient Escherichia coli ATCC 25922 after 18 hrs by CLSI broth microdilution method; type: functional; settings: ATCC 25922, 18 h
# Enterococcus faecium [22] = test: Antibacterial activity against vancomycin-resistant Enterococcus faecium 12-1 after 18 hrs by CLSI broth microdilution method; type: functional; settings: 12-1, 18 h
# Staphylococcus aureus [23] = test: Antibacterial activity against methicillin-sensitive Staphylococcus aureus ATCC 29213 after 18 hrs by CLSI broth microdilution method; type: functional; settings: ATCC 29213, 18 h
# Escherichia coli [24] = test: Antibacterial activity against extended-spectrum beta-lactamase deficient Escherichia coli 1515 after 18 hrs by CLSI broth microdilution method; type: functional; settings: Escherichia coli, 1515, 18 h
# Citrobacter freundii = test: Antibacterial activity against Citrobacter freundii ATCC 43864 after 18 hrs by CLSI broth microdilution method; type: functional; settings: ATCC 43864, 18 h
# [25] = system: Stenotrophomonas maltophilia; test: Antibacterial activity against Stenotrophomonas maltophilia ATCC 13636 after 18 hrs by CLSI broth microdilution method; type: functional; settings: ATCC 13636, 18 h
# Klebsiella pneumoniae [26] = test: Antibacterial activity against new delhi metallo-beta-lactamase-1 harboring Klebsiella pneumoniae ATCC BAA-2146 after 18 hrs by CLSI broth microdilution method; type: functional; settings: ATCC BAA-2146, 18 h
# Enterococcus faecalis [27] = test: Antibacterial activity against vancomycin-resistant Enterococcus faecalis 09-9 after 18 hrs by CLSI broth microdilution method; type: functional; settings: 09-9, 18 h
# [28] = Cytotoxicity against HEK293T cells assessed as reduction in cell viability after 48 hrs by MTS assay; type: cell-based, HEK-293T; settings: human
# [29] = system: Staphylococcus epidermidis; test: Antibacterial activity against methicillin-resistant Staphylococcus epidermidis 12-8 after 18 hrs by CLSI broth microdilution method; type: functional; settings: 12-8, 18 h
# Enterococcus faecium [30] = test: Antibacterial activity against vancomycin-sensitive Enterococcus faecium 12-3 after 18 hrs by CLSI broth microdilution method; type: functional; settings: 12-3, 18 h
Structure (SMILES),MIC (Staphylococcus aureus [1]),MIC (Pseudomonas aeruginosa [2]),MIC (Pseudomonas aeruginosa [3]),MIC (Enterococcus faecium [4]),MIC (Proteus vulgaris),MIC (Klebsiella pneumoniae [5]),MIC (Staphylococcus aureus [6]),MIC (Enterococcus faecalis [7]),MIC (Proteus mirabilis),MIC (Enterococcus faecalis [8]),MIC [9],MIC (Serratia marcescens),MIC (Providencia rettgeri),MIC (Staphylococcus aureus [10]),MIC (Klebsiella aerogenes),MIC (Klebsiella pneumoniae [11]),MIC (Klebsiella pneumoniae [12]),MIC (Staphylococcus aureus [13]),MIC (Enterococcus faecalis [14]),MIC (Escherichia coli [15]),further results
COCCNC(=N)c1ccc2cc(-c3ccc(-c4cc5ccc(C(=N)NCCOC)cc5[nH]4)cc3)[nH]c2c1,0.25 µg/mL,16 µg/mL,32 µg/mL,0.5 µg/mL,16 µg/mL,8 µg/mL,0.25 µg/mL,2 µg/mL,32 µg/mL,0.5 µg/mL,0.125 µg/mL,16 µg/mL,8 µg/mL,0.25 µg/mL,8 µg/mL,16 µg/mL,8 µg/mL,0.25 µg/mL,0.5 µg/mL,2 µg/mL,MIC [16]: 0.125 µg/mL; MIC (Pseudomonas aeruginosa [17]): 32 µg/mL; MIC [18]: 32 µg/mL; MIC (Escherichia coli [19]): 4 µg/mL; MIC (Enterobacter cloacae): 2 µg/mL; MIC (Klebsiella pneumoniae [20]): 8 µg/mL; MIC (Escherichia coli [21]): 2 µg/mL; MIC (Enterococcus faecium [22]): 0.5 µg/mL; MIC (Staphylococcus aureus [23]): 0.25 µg/mL; MIC (Escherichia coli [24]): 8 µg/mL; MIC (Citrobacter freundii): 2 µg/mL; MIC [25]: 16 µg/mL; MIC (Klebsiella pneumoniae [26]): 8 µg/mL; MIC (Enterococcus faecalis [27]): 1 µg/mL; CC50 at 48 h [28]: 3.95 µg/mL; MIC [29]: 0.125 µg/mL; MIC (Enterococcus faecium [30]): 0.5 µg/mL
COCCNC(=N)c1ccc2cc(-c3cncc(-c4cc5ccc(C(=N)NCCOC)cc5[nH]4)c3)[nH]c2c1,> 64 µg/mL,> 64 µg/mL,> 64 µg/mL,> 64 µg/mL,> 64 µg/mL,> 64 µg/mL,> 64 µg/mL,> 64 µg/mL,> 64 µg/mL,> 64 µg/mL,64 µg/mL,> 64 µg/mL,> 64 µg/mL,> 64 µg/mL,> 64 µg/mL,> 64 µg/mL,> 64 µg/mL,> 64 µg/mL,> 64 µg/mL,> 64 µg/mL,MIC [16]: 64 µg/mL; MIC (Pseudomonas aeruginosa [17]): > 64 µg/mL; MIC [18]: > 64 µg/mL; MIC (Escherichia coli [19]): > 64 µg/mL; MIC (Enterobacter cloacae): > 64 µg/mL; MIC (Klebsiella pneumoniae [20]): > 64 µg/mL; MIC (Escherichia coli [21]): > 64 µg/mL; MIC (Enterococcus faecium [22]): > 64 µg/mL; MIC (Staphylococcus aureus [23]): > 64 µg/mL; MIC (Escherichia coli [24]): > 64 µg/mL; MIC (Citrobacter freundii): > 64 µg/mL; MIC [25]: > 64 µg/mL; MIC (Klebsiella pneumoniae [26]): > 64 µg/mL; MIC (Enterococcus faecalis [27]): > 64 µg/mL; CC50 at 48 h [28]: 28 µg/mL; MIC [29]: > 64 µg/mL; MIC (Enterococcus faecium [30]): > 64 µg/mL

# — ChEMBL document CHEMBL4229379, “Synthesis and structure-activity relationship of novel bisindole amidines active against MDR Gram-positive and Gram-negative bacteria” (Eur J Med Chem, 2018)
